Source: patent US11319299B2, “Substituted carboxamides as inhibitors of WDR5 protein-protein binding” (PROPELLON THERAPEUTICS INC., priority 2016, dated 2022)

Tests used:
[1] = test system: H3K4 dimethylation (H3K4me2) in T24 cells; assay: Detection of in-cell H3K4 dimethylation (AlphaLisa); type: cell-based; settings: Homo sapiens, T-24, 120 h, five days, read-out: In vitro whole cell potency in T24 cells, H3K4Me2 (IC50)
Description: (iii) Detection of In-Cell H3K4 Dimethylation
T24 cells were seeded into a 96-well plate at 400 cells/well in 150 μl medium (McCoy 5A containing 10% FBS, 100 μg/ml Normocin, and 50 μg/ml Gentamycin, Invitrogen). A HP D300 digital dispenser was used to dose cells with DMSO or test compounds across a 10-point range of concentrations (high dose of 10 μM), and cultures were grown in a humidified 5% CO2 incubator at 37° C. After five days, plates were removed from incubator, media was aspirated, and the cells washed in PBS. Cell lysis, histone extraction, and detection of H3K4 dimethylation (H3K4me2) were performed using an AlphaLisa kit according to the manufacturer's instructions (Perkin Elmer). Signal was measured using an Envision plate reader.

[2] = test system: MV4-11 cells; assay: Cell proliferation assay (ATPlite); type: cell-based; settings: Homo sapiens, MV4-11, 120 h; MV-411 cells, five days; read-out: In vitro whole cell potency in MV-411 cells, (IC50)
Method in brief: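 Read-out is ATP-based luminescence (ATPlite) after 5 days of culture at 37° C under 5% CO2. Compounds were given as 10-point dilutions starting at 10 μM to MV4-11 cells, seeded at 1,000 cells/well in Alpha-MEM plus 10% FBS.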

[3] = target: T1, WDR5 (Homo sapiens (Human), UniProt P61964); assay: Surface Plasmon Resonance (SPR) assay, KD and residence time; type: binding; settings: surface plasmon resonance (SPR); read-out: WDR5 binding affinity (KD)
[4] = target: T1, WDR5; settings: previous studies, J. Med. Chem. 2010, 53: 5179-5185; J. Am. Chem. Soc. 2013, 135: 669-682; read-out: Ki, binding affinity to WDR5; cited from earlier work

Row | Compound | IC50 [1] [µM] | IC50 [2] [µM] | Kd [3] [µM] | Ki [4] [µM]
1 | CN1CCN(c2cc(F)c(-c3cnc(N4CCOCC4)nc3)cc2NC(=O)c2c[nH]c(=O)cc2C(F)(F)F)CC1 [Example 3, N-(4-fluoro-2-(4-methylpiperazin-1-yl)-5-(2-morpholinopyrimidin-5-yl)phenyl)-6-oxo-4-(trifluoromethyl)-1,6-dihydropyridine-3-carboxamide] | 0.882 | 0.749 | – | –
2 | C[C@@H]1CN(c2cc(F)c(-c3cnc(N4CCOCC4)nc3)cc2NC(=O)c2c[nH]c(=O)cc2C(F)(F)F)CCN1C [Example 6, (R)—N-(2-(3,4-dimethylpiperazin-1-yl)-4-fluoro-5-(2-morpholinopyrimidin-5-yl)phenyl)-6-oxo-4-(trifluoromethyl)-1,6-dihydropyridine-3-carboxamide] | 1.07 | 0.828 | – | –
3 | C[C@H]1CN(c2cc(F)c(-c3cnc(N4CCOCC4)nc3)cc2NC(=O)c2c[nH]c(=O)cc2C(F)(F)F)CCN1C [Example 7, (S)—N-(2-(3,4-dimethylpiperazin-1-yl)-4-fluoro-5-(2-morpholinopyrimidin-5-yl)phenyl)-6-oxo-4-(trifluoromethyl)-1,6-dihydropyridine-3-carboxamide] | 0.166 | 0.051 | – | –
4 | C[C@@H]1CN(c2cc(F)c(-c3cnc(N4CCOCC4)nc3)cc2NC(=O)c2c[nH]c(=O)cc2C(F)(F)F)C[C@H](C)N1C [Example 8, N-(4-fluoro-5-(2-morpholinopyrimidin-5-yl)-2-((3R,5S)-3,4,5-trimethylpiperazin-1-yl)phenyl)-6-oxo-4-(trifluoromethyl)-1,6-dihydropyridine-3-carboxamide] | 0.144 | – | – | –
5 | C[C@@H]1CN(c2cc(F)c(-c3ccc(OCC4CC4)nc3)cc2NC(=O)c2c[nH]c(=O)cc2C(F)(F)F)C[C@H](C)N1C [Example 39, N-[5-[6-(cyclopropylmethoxy)pyridin-3-yl]-4-fluoro-2-[(3S,5R)-3,4,5-trimethylpiperazin-1-yl]phenyl]-6-oxo-4-(trifluoromethyl)-1H-pyridine-3-carboxamide] | 0.626 | 0.213 | – | –
6 | CC(C)OC(=O)N1CC=C(c2cc(NC(=O)c3c[nH]c(=O)cc3C(F)(F)F)c(N3C[C@@H](C)N(C)[C@@H](C)C3)cc2F)C1 [Example 600, Propan-2-yl 3-[2-fluoro-5-[[6-oxo-4-(trifluoromethyl)-1H-pyridine-3-carbonyl]amino]-4-[(3R,5S)-3,4,5-trimethylpiperazin-1-yl]phenyl]-2,5-dihydropyrrole-1-carboxylate] | – | 0.052 | 0.000779 | –
7 | Ac-A-R-A-NH2 | – | – | – | 120
